Entries after “also recorded” stand apart in the source; their conditions may differ. Marks after values point to notes of the source that are not given here.
Test system: lower esophageal sphincter
Assay: Lower esophageal sphincter pressure recording during NGES in anesthetized dogs, after L-NAME and atropine
Type: in vivo
Procedure: All recordings were performed one hour after consumption of three ounces of canned dog food to prevent fluctuations in lower esophageal sphincter pressure, and under mild sedation (acepromazine 0.5 mg/kg). During electrical stimulation days, tests consisted of three periods of 20 minutes each: […] Electrical stimulation was delivered using an external pulse generator. […] Area under the curve (“AUC”) and pressure were compared among the three periods. Data are shown as mean±SD, ANOVA and t-test, p<0.05. Three female mongrel dogs underwent continuous recording of lower esophageal sphincter pressure under anesthesia. NGES was delivered to the lower esophageal sphincter for 10 minutes at: […] Changes in lower esophageal sphincter pressure during NGES are presented as percent change from preceding baseline. Results (FIG. 6) are presented as mean±SD.

[1] = LES pressure during NGES, percent change from preceding baseline, L-NAME 50 mg/kg, atropine 0.05 mg/kg in presence of L-NAME, mean (SD)
[2] = during NGES, L-NAME 50 mg/kg, atropine 0.05 mg/kg in presence of L-NAME, mean (SD)
[3] = in words, anesthetized dogs, L-NAME 50 mg/kg, atropine 0.05 mg/kg in presence of L-NAME
[4] = in words, anesthetized dogs, L-NAME 50 mg/kg, atropine 0.05 mg/kg in presence of L-NAME, listed as atropine

`COC(=O)[C@@H](N)CCCNC(=N)N[N+](=O)[O-]` [L-NAME] was tested, and the “Initial Peak (% change)” value [1] was 76 (48.6) % change, the “Relaxation (% change)” value [1] was 28.2 (34.1)** % change and the “Lower Esophageal Sphincter Pressure Baseline” value (anesthetized female mongrel dogs, L-NAME infusion 50 mg/kg, atropine 0.05 mg/kg in the presence of L-NAME, mean (SD)) was 35.7 (5.1)* mmHg. The “Peak Duration” value [2] was 6.7 (3.9) sec, the “Relaxation Duration” value [2] was 4.4 (3.8) sec and the “Effect on lower esophageal sphincter relaxation phase following NGES” value (in words, anesthetized dogs, L-NAME 50 mg/kg) was “markedly diminished or abolished; also recorded: markedly suppressed”. For the same molecule, the “Effect on (baseline) lower esophageal sphincter pressure” value [3] was “increased” and the “Effect on initial rise in lower esophageal sphincter pressure induced by NGES” value [3] was “augmented; also recorded: enhanced”.
`CN1[C@@H]2CC[C@H]1C[C@@H](OC(=O)C(CO)c1ccccc1)C2` (stereo partly drawn) [Atropine, atropine] was tested, and the “Effect on (baseline) lower esophageal sphincter pressure” value [3] was “lowered”, the “Effect on initial rise in lower esophageal sphincter pressure induced by NGES” value [3] was “abolished” and the “Effect on (baseline) lower esophageal sphincter pressure” value [4] was “reduced”. The “Effect on initial rise in lower esophageal sphincter pressure induced by NGES” value [4] was “reduced”.
